Experimental data published in US10485235B2, “Aryloxypyrimidinyl ethers as herbicides” (FMC Corporation, priority 2015, dated 2019).

Columns and labels:
Type in all cases: in vivo
[1] = test system: kochia (Kochia scoparia); assay: Test A preemergence, kochia; details: Preemergence, 0 to 100 scale (0 no effect, 100 complete control)
Procedure, shortened: (§1)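 Compounds, formulated in a surfactant-containing solvent mixture that is non-phytotoxic, are sprayed onto soil after seeding (preemergence) or onto young plants, one to two leaves and 2 to 10 cm high (postemergence). Response is scored visually after around 10 days, where 0 means no effect and 100 means complete control.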

[2] = test system: sedge, umbrella (small-flower umbrella sedge, Cyperus difformis); assay: Test B flooded paddy test, umbrella sedge; details: 250 g ai/ha, Flood; visual rating after 13 to 15 days; scale 0 to 100, 0 is no effect, 100 is complete control
Procedure, shortened: (§2)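 Plants grown to 2-leaf stage, pots flooded to 3 cm above soil and compound applied directly to paddy water, depth maintained throughout. After 13-15 days in greenhouse, visual rating against untreated controls on 0-100 scale (0 no effect, 100 complete control).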

[3] = test system: ryegrass, Italian (Italian ryegrass, Lolium multiflorum); assay: Test A preemergence, Italian ryegrass; details: Preemergence, 0 to 100 scale (0 no effect, 100 complete control)
Procedure, shortened: as §1

[4] = test system: rice (Oryza sativa); assay: Test B flooded paddy test, rice; details: 250 g ai/ha, Flood; visual rating after 13 to 15 days; scale 0 to 100, 0 is no effect, 100 is complete control
Procedure, shortened: as §2

[5] = test system: pigweed (Amaranthus retroflexus); assay: Test A postemergence, pigweed; details: postemergence, 0 to 100 scale, 0 is no effect, 100 is complete control, approximately 10 days
Procedure, shortened: as §1

[6] = test system: wheat (Triticum aestivum); assay: Test A postemergence, wheat; details: postemergence, 0 to 100 scale, 0 is no effect, 100 is complete control, approximately 10 days
Procedure, shortened: as §1

[7] = test system: kochia (Kochia scoparia); assay: Test A postemergence, kochia; details: postemergence, 0 to 100 scale, 0 is no effect, 100 is complete control, approximately 10 days
Procedure, shortened: as §1

[8] = test system: barnyardgrass (Echinochloa crus-galli); assay: Test A postemergence, barnyardgrass; details: postemergence, 0 to 100 scale, 0 is no effect, 100 is complete control, approximately 10 days
Procedure, shortened: as §1

[9] = test system: ragweed (common ragweed, Ambrosia elatior); assay: Test A preemergence, ragweed; details: Preemergence, 0 to 100 scale (0 no effect, 100 complete control)
Procedure, shortened: as §1

[10] = test system: ducksalad (Heteranthera limosa); assay: Test B flooded paddy test, ducksalad; details: 250 g ai/ha, Flood; visual rating after 13 to 15 days; scale 0 to 100, 0 is no effect, 100 is complete control
Procedure, shortened: as §2

[11] = test system: ryegrass, Italian (Italian ryegrass, Lolium multiflorum); assay: Test A postemergence, Italian ryegrass; details: postemergence, 0 to 100 scale, 0 is no effect, 100 is complete control, approximately 10 days
Procedure, shortened: as §1

[12] = test system: ragweed (common ragweed, Ambrosia elatior); assay: Test A postemergence, ragweed; details: postemergence, 0 to 100 scale, 0 is no effect, 100 is complete control, approximately 10 days
Procedure, shortened: as §1

[13] = test system: foxtail, giant (giant foxtail, Setaria faberii); assay: Test A postemergence, giant foxtail; details: postemergence, 0 to 100 scale, 0 is no effect, 100 is complete control, approximately 10 days
Procedure, shortened: as §1

[14] = test system: pigweed (Amaranthus retroflexus); assay: Test A preemergence, pigweed; details: Preemergence, 0 to 100 scale (0 no effect, 100 complete control)
Procedure, shortened: as §1

[15] = test system: galium (catchweed bedstraw, Galium aparine); assay: Test A postemergence, galium; details: postemergence, 0 to 100 scale, 0 is no effect, 100 is complete control, approximately 10 days
Procedure, shortened: as §1

[16] = test system: foxtail, giant (giant foxtail, Setaria faberii); assay: Test A preemergence, giant foxtail; details: Preemergence, 0 to 100 scale (0 no effect, 100 complete control)
Procedure, shortened: as §1

[17] = test system: barnyardgrass (Echinochloa crus-galli); assay: Test B flooded paddy test, barnyardgrass; details: 250 g ai/ha, Flood; visual rating after 13 to 15 days; scale 0 to 100, 0 is no effect, 100 is complete control
Procedure, shortened: as §2

[18] = test system: corn (Zea mays); assay: Test A postemergence, corn; details: postemergence, 0 to 100 scale, 0 is no effect, 100 is complete control, approximately 10 days
Procedure, shortened: as §1

[19] = test system: blackgrass (Alopecurus myosuroides); assay: Test A postemergence, blackgrass; details: postemergence, 0 to 100 scale, 0 is no effect, 100 is complete control, approximately 10 days
Procedure, shortened: as §1

[20] = test system: barnyardgrass (Echinochloa crus-galli); assay: Test A preemergence, barnyardgrass; details: Preemergence, 0 to 100 scale (0 no effect, 100 complete control)
Procedure, shortened: as §1

## Cc1cccc(Oc2ncc(Cl)cn2)c1OCCCC(F)(F)F [Compound 55]
[1]; 31 g ai/ha
  Plant response rating, Kochia: 0
[1]; 125 g ai/ha
  Plant response rating, Kochia: 60
[2]
  Plant response rating, Sedge, Umbrella: 95
[3]; 31 g ai/ha
  Plant response rating, Ryegrass, Italian: 0
[3]; 125 g ai/ha
  Plant response rating, Ryegrass, Italian: 10
[4]
  Plant response rating, Rice: 45
[5]; 31 g ai/ha
  Plant response rating, Pigweed: 10
[5]; 125 g ai/ha
  Plant response rating, Pigweed: 30
[6]; 31 g ai/ha
  Plant response rating, Wheat: 0
[6]; 125 g ai/ha
  Plant response rating, Wheat: 0
[7]; 31 g ai/ha
  Plant response rating, Kochia: 10
[7]; 125 g ai/ha
  Plant response rating, Kochia: 20
[8]; 31 g ai/ha
  Plant response rating, Barnyardgrass: 10
[8]; 125 g ai/ha
  Plant response rating, Barnyardgrass: 20
[9]; 31 g ai/ha
  Plant response rating, Ragweed: 0
[9]; 125 g ai/ha
  Plant response rating, Ragweed: 0
[10]
  Plant response rating, Ducksalad: 100
[11]; 31 g ai/ha
  Plant response rating, Ryegrass, Italian: 0
[11]; 125 g ai/ha
  Plant response rating, Ryegrass, Italian: 20
[12]; 31 g ai/ha
  Plant response rating, Ragweed: 0
[12]; 125 g ai/ha
  Plant response rating, Ragweed: 0
[13]; 31 g ai/ha
  Plant response rating, Foxtail, Giant: 20
[13]; 125 g ai/ha
  Plant response rating, Foxtail, Giant: 60
[14]; 31 g ai/ha
  Plant response rating, Pigweed: 0
[14]; 125 g ai/ha
  Plant response rating, Pigweed: 50
[15]; 31 g ai/ha
  Plant response rating, Galium: 0
[15]; 125 g ai/ha
  Plant response rating, Galium: 20
[16]; 31 g ai/ha
  Plant response rating, Foxtail, Giant: 10
[16]; 125 g ai/ha
  Plant response rating, Foxtail, Giant: 80
[17]
  Plant response rating, Barnyardgrass: 40
[18]; 31 g ai/ha
  Plant response rating, Corn: 0
[18]; 125 g ai/ha
  Plant response rating, Corn: 20
[19]; 31 g ai/ha
  Plant response rating, Blackgrass: 0
[19]; 125 g ai/ha
  Plant response rating, Blackgrass: 20
[20]; 31 g ai/ha
  Plant response rating, Barnyardgrass: 10
[20]; 125 g ai/ha
  Plant response rating, Barnyardgrass: 70

## FC(F)(F)c1ccc(COc2c(Br)cccc2Oc2ncc(Cl)cn2)cc1 [Compound 19]
[1]; 125 g ai/ha
  Plant response rating, Kochia: 0
[1]; 500 g ai/ha
  Plant response rating, Kochia: 0
[2]
  Plant response rating, Sedge, Umbrella: 0
[3]; 125 g ai/ha
  Plant response rating, Ryegrass, Italian: 0
[3]; 500 g ai/ha
  Plant response rating, Ryegrass, Italian: 20
[4]
  Plant response rating, Rice: 0
[5]; 125 g ai/ha
  Plant response rating, Pigweed: 20
[5]; 500 g ai/ha
  Plant response rating, Pigweed: 100
[6]; 125 g ai/ha
  Plant response rating, Wheat: 0
[6]; 500 g ai/ha
  Plant response rating, Wheat: 20
[7]; 125 g ai/ha
  Plant response rating, Kochia: 10
[7]; 500 g ai/ha
  Plant response rating, Kochia: 50
[8]; 125 g ai/ha
  Plant response rating, Barnyardgrass: 0
[8]; 500 g ai/ha
  Plant response rating, Barnyardgrass: 20
[9]; 125 g ai/ha
  Plant response rating, Ragweed: 0
[9]; 500 g ai/ha
  Plant response rating, Ragweed: 0
[10]
  Plant response rating, Ducksalad: 0
[11]; 125 g ai/ha
  Plant response rating, Ryegrass, Italian: 0
[11]; 500 g ai/ha
  Plant response rating, Ryegrass, Italian: 0
[12]; 125 g ai/ha
  Plant response rating, Ragweed: 10
[12]; 500 g ai/ha
  Plant response rating, Ragweed: 20
[13]; 125 g ai/ha
  Plant response rating, Foxtail, Giant: 0
[13]; 500 g ai/ha
  Plant response rating, Foxtail, Giant: 20
[14]; 125 g ai/ha
  Plant response rating, Pigweed: 0
[14]; 500 g ai/ha
  Plant response rating, Pigweed: 0
[15]; 125 g ai/ha
  Plant response rating, Galium: 0
[15]; 500 g ai/ha
  Plant response rating, Galium: 30
[16]; 125 g ai/ha
  Plant response rating, Foxtail, Giant: 10
[16]; 500 g ai/ha
  Plant response rating, Foxtail, Giant: 90
[17]
  Plant response rating, Barnyardgrass: 0
[18]; 125 g ai/ha
  Plant response rating, Corn: 10
[18]; 500 g ai/ha
  Plant response rating, Corn: 30
[19]; 125 g ai/ha
  Plant response rating, Blackgrass: 0
[19]; 500 g ai/ha
  Plant response rating, Blackgrass: 10
[20]; 125 g ai/ha
  Plant response rating, Barnyardgrass: 0
[20]; 500 g ai/ha
  Plant response rating, Barnyardgrass: 60
